The Kinase Knowledgebase extract (Sharma et al. 2016)

Each compound was assayed against MAPK14 (UniProt Q16539) (assay: Inhibition of MAPK14 Kinase Activity).
Chain of MAPK14 (Q16539 whole entry, looked up): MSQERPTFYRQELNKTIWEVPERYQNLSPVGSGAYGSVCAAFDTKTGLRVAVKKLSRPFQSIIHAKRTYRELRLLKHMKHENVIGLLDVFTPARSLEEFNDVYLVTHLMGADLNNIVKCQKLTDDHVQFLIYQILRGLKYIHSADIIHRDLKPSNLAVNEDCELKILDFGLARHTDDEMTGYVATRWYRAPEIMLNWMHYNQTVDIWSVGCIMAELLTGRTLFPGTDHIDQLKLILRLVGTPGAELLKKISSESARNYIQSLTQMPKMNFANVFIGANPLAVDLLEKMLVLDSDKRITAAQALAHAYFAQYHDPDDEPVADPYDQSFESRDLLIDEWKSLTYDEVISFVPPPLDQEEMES

IC50, < 1000 nM:
COc1ccc(OC(F)(F)F)cc1NC(=O)Nc1ccc(Oc2cc(C)nc(CN3CCN(C)CC3)n2)c2ccccc12
COc1ccc(OC(F)(F)F)cc1NC(=O)Nc1ccc(Oc2cc(C)nc(NCCN(C)C)n2)c2ccccc12
COc1ccc(C(F)(F)F)cc1NC(=O)Nc1ccc(Oc2cc(C)nc(NCC(O)CO)n2)c2ccccc12 (centres undefined)
COc1ccc(C(F)(F)F)cc1NC(=O)Nc1ccc(Oc2cc(C)nc(NCC3CCCO3)n2)c2ccccc12 (centres undefined)
COc1ccc(OC(F)(F)F)cc1NC(=O)Nc1ccc(Oc2cc(C)nc(NCCN3CCCC3)n2)c2ccccc12
COc1ccc(C(F)(F)F)cc1NC(=O)Nc1ccc(Oc2cc(C)nc(C)n2)c2ccccc12
COc1ccc(C(C(F)(F)F)C(F)(F)F)cc1NC(=O)Nc1ccc(Oc2cc(C)nc(CN3CCOCC3)n2)c2ccccc12
COc1ccc(C(F)(F)F)cc1NC(=O)Nc1ccc(Oc2cc(C)nc(NCC3CC3)n2)c2ccccc12
COc1ccc(C(C(F)(F)F)C(F)(F)F)cc1NC(=O)Nc1ccc(Oc2cc(C)nc(NCCN(C)C)n2)c2ccccc12
COc1ccc(OC(F)(F)F)cc1NC(=O)Nc1ccc(Oc2cc(C)nc(OCCn3ccnc3)n2)c2ccccc12
COc1ccc(OC(F)(F)F)cc1NC(=O)Nc1ccc(Oc2cc(C)nc(NCCCN3CCOCC3)n2)c2ccccc12
CCNc1nc(C)cc(Oc2ccc(NC(=O)Nc3cc(C(F)(F)F)ccc3OC)c3ccccc23)n1
COc1ccc(OC(F)(F)F)cc1NC(=O)Nc1ccc(Oc2cc(C)nc(CN3CCCC3)n2)c2ccccc12
COc1nc(C)cc(Oc2ccc(NC(=O)Nc3cc(C(F)(F)F)ccc3OC)c3ccccc23)n1
COc1ccc(C(F)(F)C(F)(F)F)cc1NC(=O)Nc1ccc(Oc2cc(C)nc(N)n2)c2ccccc12
COc1ccc(C(F)(F)F)cc1NC(=O)Nc1ccc(Oc2cc(C)nc(NCCN3CCCC3)n2)c2ccccc12
COc1c(NC(=O)Nc2ccc(Oc3cc(C)nc(C)n3)c3ccccc23)cc(C(F)(F)F)cc1NS(C)(=O)=O
COc1ccc(C(F)(F)F)cc1NC(=O)Nc1ccc(Oc2cc(C)nc(NCCN(C)C)n2)c2ccccc12
COc1ccc(C(F)(F)F)cc1NC(=O)Nc1ccc(Oc2cc(C)nc(NC(C)C)n2)c2ccccc12
COc1ccc(C(F)(F)F)cc1NC(=O)Nc1ccc(Oc2cc(C)nc(N)n2)c2ccccc12
COCCNc1nc(C)cc(Oc2ccc(NC(=O)Nc3cc(OC(F)(F)F)ccc3OC)c3ccccc23)n1
COc1ccc(C(F)(F)F)cc1NC(=O)Nc1ccc(Oc2cc(C)nc(CN3CCN(C)CC3)n2)c2ccccc12
COc1ccc(C(C)C(F)(F)F)cc1NC(=O)Nc1ccc(Oc2cc(C)nc(N)n2)c2ccccc12 (centres undefined)
COc1ccc(CC(F)(F)F)cc1NC(=O)Nc1ccc(Oc2cc(C)nc(NCCCN(C)C)n2)c2ccccc12
COc1ccc(C(F)(F)F)cc1NC(=O)Nc1ccc(Oc2cc(C)nc(NCCN3CCOCC3)n2)c2ccccc12
COc1ccc(CC(F)(F)F)cc1NC(=O)Nc1ccc(Oc2cc(C)nc(OCC3CCN(C)CC3)n2)c2ccccc12
COc1ccc(C(C(F)(F)F)C(F)(F)F)cc1NC(=O)Nc1ccc(Oc2cc(C)nc(N)n2)c2ccccc12
CCNc1nc(C)cc(Oc2ccc(NC(=O)Nc3cc(OC(F)(F)F)ccc3OC)c3ccccc23)n1
COc1ccc(C(F)(F)F)cc1NC(=O)Nc1ccc(Oc2cc(C)nc(CN3CCOCC3)n2)c2ccccc12
COc1ccc(OC(F)(F)F)cc1NC(=O)Nc1ccc(Oc2cc(C)nc(CN3CCOCC3)n2)c2ccccc12
COc1ccc(C(F)(F)F)cc1NC(=O)Nc1ccc(Oc2cc(C)nc(CN(C)C)n2)c2ccccc12
CNc1nc(C)cc(Oc2ccc(NC(=O)Nc3cc(OC(F)(F)F)ccc3OC)c3ccccc23)n1
CNc1nc(C)cc(Oc2ccc(NC(=O)Nc3cc(C(F)(F)F)ccc3OC)c3ccccc23)n1
COc1ccc(CC(F)(F)F)cc1NC(=O)Nc1ccc(Oc2cc(C)nc(NCCCN3CCOCC3)n2)c2ccccc12
COc1ccc(C(F)(F)F)cc1NC(=O)Nc1ccc(Oc2cc(C)nc(NC3CC3)n2)c2ccccc12
COCC(C)Nc1nc(C)cc(Oc2ccc(NC(=O)Nc3cc(C(F)(F)F)ccc3OC)c3ccccc23)n1 (centres undefined)
COc1ccc(CC(F)(F)F)cc1NC(=O)Nc1ccc(Oc2cc(C)nc(N)n2)c2ccccc12
COc1ccc(OC(F)(F)F)cc1NC(=O)Nc1ccc(Oc2cc(C)nc(CN(C)C)n2)c2ccccc12
COCCNc1nc(C)cc(Oc2ccc(NC(=O)Nc3cc(C(F)(F)F)ccc3OC)c3ccccc23)n1
